pEC50, pIC50: −log10 of the molar value. “And” between values parts separate entries of the source, which are not always exact repeats. Identical values can stand only once. The source made the active and inactive calls. No cut-off for these calls is given here.
Assays:
Mus musculus [1] = test: In vivo induction of CBP degradation in human RS4-11 cells xenografted in SCID mouse at 1 mg/kg, ip measured after 3 hrs by Western blot analysis; type: functional, organism-based
[2] = molecular target: T1, Non-selective voltage-gated ion channel VDAC2 (Homo sapiens) (UniProt P45880); test: Induction of VDAC2 degradation in human RS4-11 cells assessed as fold reduction in protein level at 10 nM incubated for 4 hrs by Western blot analysis; type: cell-based
T1 sequence (whole entry): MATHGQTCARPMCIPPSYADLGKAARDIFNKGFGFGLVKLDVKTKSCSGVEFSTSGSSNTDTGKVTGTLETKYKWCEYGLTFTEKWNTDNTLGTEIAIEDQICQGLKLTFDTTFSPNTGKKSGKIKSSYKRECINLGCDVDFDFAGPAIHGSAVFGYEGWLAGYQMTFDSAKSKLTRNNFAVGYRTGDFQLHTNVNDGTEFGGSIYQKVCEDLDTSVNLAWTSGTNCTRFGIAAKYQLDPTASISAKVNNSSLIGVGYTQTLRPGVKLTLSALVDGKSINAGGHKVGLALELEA

[3] = Toxicity in SCID mouse xenografted with human RS4-11 cells assessed as body weight loss at 1 mg/kg, ip administered three times a week for 2 weeks relative to control; type: organism-based; conditions: in vivo, 336 h
RS4-11 [4] = test: Antitumor activity against human RS4-11 cells xenografted in SCID mouse assessed as tumor growth inhibition at 1 mg/kg, ip administered twice a week on day 1 and day 4 for 2 weeks relative to control; type: functional; design: scale not given: the % may be the effect or the level left
RS4-11 [5] = test: In vivo induction of p300 degradation in human RS4-11 cells xenografted in SCID mouse at 3 mg/kg, ip measured after 3 to 6 hrs by Western blot analysis; type: functional, organism-based; conditions: time 3-6 hrs
Mus musculus [6] = test: In vivo induction of p300 degradation in human RS4-11 cells xenografted in SCID mouse at 1 mg/kg, ip measured after 3 hrs by Western blot analysis; type: functional, organism-based
HL-60 [7] = test: Cytotoxicity against human HL-60 cells assessed as inhibition of cell growth incubated for 4 days by cellTiter-Glo assay; type: functional, cell-based; conditions: HL-60, 96 h
[8] = Toxicity in SCID mouse xenografted with human RS4-11 cells assessed as body weight loss at 1 mg/kg, ip administered twice a week on day 1 and day 4 for 2 weeks relative to control; type: organism-based; conditions: in vivo, 336 h
RS4-11 [9] = test: Antitumor activity against human RS4-11 cells xenografted in SCID mouse assessed as tumor growth inhibition at 1 mg/kg, ip administered thrice a week on day 1, 3 and 5 for 2 weeks relative to control; type: functional; design: scale not given: the % may be the effect or the level left
RS4-11 [10] = test: In vivo induction of CBP degradation in human RS4-11 cells xenografted in SCID mouse at 3 mg/kg, ip measured after 3 to 6 hrs by Western blot analysis; type: functional, organism-based; conditions: time 3-6 hrs
RS4-11 [11] = test: Induction of cell cycle arrest in human RS4-11 cells assessed as accumulation at G1 phase at 1 uM measured after 8 hrs by PI staining based flow cytometric analysis; type: functional
RS4-11 [12] = test: Antitumor activity against human RS4-11 cells xenografted in SCID mouse assessed as tumor growth inhibition at 0.3 mg/kg, ip administered five days a week for 2 weeks relative to control; type: functional; design: scale not given: the % may be the effect or the level left
[13] = Drug concentration in SCID mouse tumor xenografted with RS4-11 cells at 3 mg/kg, ip measured after 3 hrs by LC-HRMS method; type: ADME, organism-based, Neoplasm; conditions: read-out: Ct
RS4-11 [14] = test: Cytotoxicity against human RS4-11 cells assessed as inhibition of cell growth incubated for 4 days by cellTiter-Glo assay; type: functional, cell-based; conditions: RS4-11, 96 h
[15] = Drug concentration in IP dosed SCID mouse tumor xenografted with RS4-11 cells measured after 24 to 48 hrs by LC-HRMS method; type: ADME, organism-based, Neoplasm; conditions: in vivo, time 24-48 hrs
MV4-11 [16] = test: Cytotoxicity against human MV4-11 cells assessed as inhibition of cell growth incubated for 4 days by cellTiter-Glo assay; type: functional, cell-based; conditions: MV4-11, 96 h
CREB-binding protein [17] = molecular target: T2, CREB-binding protein (Homo sapiens, UniProt Q92793); test: Induction of CBP degradation in human RS4-11 cells at 10 nM incubated for 3 hrs by Proteomics analysis; type: cell-based
Target sequence in this assay (Q92793 2-2442 limits assumed): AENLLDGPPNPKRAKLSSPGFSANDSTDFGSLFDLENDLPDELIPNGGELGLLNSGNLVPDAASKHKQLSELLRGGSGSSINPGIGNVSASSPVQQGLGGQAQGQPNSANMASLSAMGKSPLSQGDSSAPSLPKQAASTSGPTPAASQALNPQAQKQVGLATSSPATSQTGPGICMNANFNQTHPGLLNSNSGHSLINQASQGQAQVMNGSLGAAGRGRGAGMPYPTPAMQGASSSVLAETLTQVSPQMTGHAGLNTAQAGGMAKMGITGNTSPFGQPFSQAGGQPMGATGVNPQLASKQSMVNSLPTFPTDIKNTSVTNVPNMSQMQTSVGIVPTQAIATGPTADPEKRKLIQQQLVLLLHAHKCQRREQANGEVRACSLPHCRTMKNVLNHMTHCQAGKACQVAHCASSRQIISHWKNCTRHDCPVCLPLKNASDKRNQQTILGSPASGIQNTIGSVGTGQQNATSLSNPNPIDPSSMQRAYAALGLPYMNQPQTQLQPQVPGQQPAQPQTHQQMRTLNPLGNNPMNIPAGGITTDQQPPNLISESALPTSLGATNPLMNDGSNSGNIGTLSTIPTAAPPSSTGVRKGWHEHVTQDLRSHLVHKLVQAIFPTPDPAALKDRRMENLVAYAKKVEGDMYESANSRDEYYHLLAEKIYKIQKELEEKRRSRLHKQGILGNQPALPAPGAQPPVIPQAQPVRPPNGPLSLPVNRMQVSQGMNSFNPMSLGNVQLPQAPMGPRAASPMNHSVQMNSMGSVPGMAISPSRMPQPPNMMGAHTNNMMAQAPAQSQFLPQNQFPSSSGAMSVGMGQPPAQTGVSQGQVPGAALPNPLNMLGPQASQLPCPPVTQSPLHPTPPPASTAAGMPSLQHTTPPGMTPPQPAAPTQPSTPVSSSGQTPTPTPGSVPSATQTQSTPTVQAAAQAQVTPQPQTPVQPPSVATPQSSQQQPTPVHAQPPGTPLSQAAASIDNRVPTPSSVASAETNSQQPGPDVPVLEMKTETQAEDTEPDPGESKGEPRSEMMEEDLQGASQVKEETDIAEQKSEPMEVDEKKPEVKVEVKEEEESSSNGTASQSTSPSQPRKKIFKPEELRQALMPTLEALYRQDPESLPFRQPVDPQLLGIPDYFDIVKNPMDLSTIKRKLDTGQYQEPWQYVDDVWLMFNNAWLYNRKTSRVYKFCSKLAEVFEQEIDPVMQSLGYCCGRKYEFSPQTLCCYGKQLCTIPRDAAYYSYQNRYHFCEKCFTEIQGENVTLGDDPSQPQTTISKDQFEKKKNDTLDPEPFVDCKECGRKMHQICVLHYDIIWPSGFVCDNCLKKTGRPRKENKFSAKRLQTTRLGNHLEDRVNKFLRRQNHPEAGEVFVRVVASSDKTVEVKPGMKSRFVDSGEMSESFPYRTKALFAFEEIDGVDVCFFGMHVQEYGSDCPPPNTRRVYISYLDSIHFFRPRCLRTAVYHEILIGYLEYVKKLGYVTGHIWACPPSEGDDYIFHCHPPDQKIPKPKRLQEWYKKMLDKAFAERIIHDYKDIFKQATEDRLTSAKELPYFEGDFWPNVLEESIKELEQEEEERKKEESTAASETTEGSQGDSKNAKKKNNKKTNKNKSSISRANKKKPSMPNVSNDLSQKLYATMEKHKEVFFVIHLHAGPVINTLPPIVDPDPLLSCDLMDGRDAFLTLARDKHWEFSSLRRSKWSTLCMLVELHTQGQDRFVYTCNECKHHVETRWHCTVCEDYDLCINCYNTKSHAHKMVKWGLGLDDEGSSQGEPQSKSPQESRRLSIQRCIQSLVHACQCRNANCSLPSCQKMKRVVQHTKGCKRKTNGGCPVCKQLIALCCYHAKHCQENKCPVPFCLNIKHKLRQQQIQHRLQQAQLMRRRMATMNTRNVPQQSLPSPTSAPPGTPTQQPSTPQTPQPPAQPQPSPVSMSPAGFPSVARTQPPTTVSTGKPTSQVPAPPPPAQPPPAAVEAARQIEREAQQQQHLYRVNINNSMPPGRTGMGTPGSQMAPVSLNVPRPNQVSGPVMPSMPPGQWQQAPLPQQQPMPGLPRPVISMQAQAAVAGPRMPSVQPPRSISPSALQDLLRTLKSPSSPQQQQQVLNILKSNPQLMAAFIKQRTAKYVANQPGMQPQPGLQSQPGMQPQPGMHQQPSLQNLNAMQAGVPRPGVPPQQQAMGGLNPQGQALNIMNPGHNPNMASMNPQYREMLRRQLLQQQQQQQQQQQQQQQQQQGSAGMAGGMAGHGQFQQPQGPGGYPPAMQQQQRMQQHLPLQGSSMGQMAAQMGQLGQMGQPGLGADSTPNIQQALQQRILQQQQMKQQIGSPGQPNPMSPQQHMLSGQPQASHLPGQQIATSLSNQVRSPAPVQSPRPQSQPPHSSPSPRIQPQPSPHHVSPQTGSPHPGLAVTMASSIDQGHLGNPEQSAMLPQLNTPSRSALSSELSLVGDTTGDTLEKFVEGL

RS4-11 [18] = test: Downregulation of MYC gene expression in human RS4-11 cells at 1 nM measured after 8 hrs by qRT-PCR analysis; type: functional, cell-based
HL-60 [19] = test: Cytotoxicity against human HL-60 cells assessed as maximum inhibition of cell growth incubated for 4 days by cellTiter-Glo assay relative to control; type: functional; conditions: time 4 day
[20] = Drug concentration in SCID mouse tumor xenografted with RS4-11 cells at 1 mg/kg, ip measured after 3 hrs by LC-HRMS method; type: ADME, organism-based, Neoplasm; conditions: read-out: Ct
[21] = molecular target: T3, Histone acetyltransferase p300 (Homo sapiens, UniProt Q09472); test: Induction of p300 degradation in human RS4-11 cells incubated for 4 hrs by Western blot assay; type: cell-based
T3 sequence (Q09472 whole entry): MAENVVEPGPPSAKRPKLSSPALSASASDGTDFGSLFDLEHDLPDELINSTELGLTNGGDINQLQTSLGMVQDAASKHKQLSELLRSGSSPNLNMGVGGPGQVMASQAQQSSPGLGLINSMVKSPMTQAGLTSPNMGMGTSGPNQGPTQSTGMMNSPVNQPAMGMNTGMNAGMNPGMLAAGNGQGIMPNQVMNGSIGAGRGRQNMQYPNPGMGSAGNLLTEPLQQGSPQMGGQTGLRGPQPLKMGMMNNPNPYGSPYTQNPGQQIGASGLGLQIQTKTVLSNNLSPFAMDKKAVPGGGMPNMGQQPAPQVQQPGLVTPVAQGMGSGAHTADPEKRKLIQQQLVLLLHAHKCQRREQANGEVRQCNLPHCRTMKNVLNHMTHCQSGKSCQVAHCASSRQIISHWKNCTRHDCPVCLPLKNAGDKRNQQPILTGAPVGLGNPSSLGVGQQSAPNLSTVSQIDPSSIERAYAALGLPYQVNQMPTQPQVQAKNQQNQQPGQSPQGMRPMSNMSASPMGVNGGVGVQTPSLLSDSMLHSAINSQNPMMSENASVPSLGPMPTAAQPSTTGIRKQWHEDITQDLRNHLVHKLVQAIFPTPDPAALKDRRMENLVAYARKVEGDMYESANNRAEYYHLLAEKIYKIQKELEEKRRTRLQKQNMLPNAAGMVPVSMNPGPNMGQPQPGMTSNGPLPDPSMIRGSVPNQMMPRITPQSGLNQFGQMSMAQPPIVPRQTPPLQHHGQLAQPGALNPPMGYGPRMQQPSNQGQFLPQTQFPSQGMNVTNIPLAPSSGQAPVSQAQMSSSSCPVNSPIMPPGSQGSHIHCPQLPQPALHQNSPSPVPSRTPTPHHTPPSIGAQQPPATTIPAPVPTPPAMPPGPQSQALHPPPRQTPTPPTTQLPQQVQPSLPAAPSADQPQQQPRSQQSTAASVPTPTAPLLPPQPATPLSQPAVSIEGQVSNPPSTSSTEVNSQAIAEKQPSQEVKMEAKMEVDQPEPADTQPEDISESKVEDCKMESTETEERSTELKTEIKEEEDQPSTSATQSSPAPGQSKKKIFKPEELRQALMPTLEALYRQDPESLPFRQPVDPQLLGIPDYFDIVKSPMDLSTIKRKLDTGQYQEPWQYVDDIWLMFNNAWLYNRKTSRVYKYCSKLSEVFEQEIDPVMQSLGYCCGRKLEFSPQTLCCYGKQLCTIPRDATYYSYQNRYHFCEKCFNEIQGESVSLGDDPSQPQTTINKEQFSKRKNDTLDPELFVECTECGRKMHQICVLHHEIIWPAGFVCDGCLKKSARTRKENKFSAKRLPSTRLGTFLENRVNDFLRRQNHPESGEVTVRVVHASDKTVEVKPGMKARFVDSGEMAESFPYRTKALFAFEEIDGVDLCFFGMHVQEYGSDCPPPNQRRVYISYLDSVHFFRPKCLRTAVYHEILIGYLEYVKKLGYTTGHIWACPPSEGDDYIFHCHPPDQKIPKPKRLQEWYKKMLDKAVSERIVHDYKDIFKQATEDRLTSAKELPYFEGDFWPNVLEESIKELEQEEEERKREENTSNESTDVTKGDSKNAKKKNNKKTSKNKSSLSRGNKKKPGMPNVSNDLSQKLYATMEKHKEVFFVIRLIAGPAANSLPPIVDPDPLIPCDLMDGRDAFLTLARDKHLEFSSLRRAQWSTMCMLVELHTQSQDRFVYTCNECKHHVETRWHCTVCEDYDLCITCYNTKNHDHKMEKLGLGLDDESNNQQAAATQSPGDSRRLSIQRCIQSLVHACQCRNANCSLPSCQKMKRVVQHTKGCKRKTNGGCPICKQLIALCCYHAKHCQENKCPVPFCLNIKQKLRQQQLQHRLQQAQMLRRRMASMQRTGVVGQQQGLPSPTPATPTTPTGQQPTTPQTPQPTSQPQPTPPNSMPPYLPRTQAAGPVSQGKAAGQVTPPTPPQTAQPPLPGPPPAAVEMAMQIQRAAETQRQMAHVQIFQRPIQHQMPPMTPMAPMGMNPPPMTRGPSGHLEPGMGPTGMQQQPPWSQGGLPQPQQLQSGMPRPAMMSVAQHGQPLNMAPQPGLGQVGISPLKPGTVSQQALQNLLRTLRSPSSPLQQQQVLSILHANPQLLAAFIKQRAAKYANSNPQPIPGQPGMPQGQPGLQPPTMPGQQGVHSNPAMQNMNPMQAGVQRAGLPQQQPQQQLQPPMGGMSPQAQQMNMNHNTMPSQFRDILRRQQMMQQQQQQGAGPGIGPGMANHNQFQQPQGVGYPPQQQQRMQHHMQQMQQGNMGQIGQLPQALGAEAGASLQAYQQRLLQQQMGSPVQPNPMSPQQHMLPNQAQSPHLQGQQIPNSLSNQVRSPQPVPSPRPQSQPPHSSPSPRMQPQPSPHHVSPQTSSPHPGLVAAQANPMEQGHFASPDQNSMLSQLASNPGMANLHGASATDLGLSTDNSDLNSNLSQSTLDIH

Mus musculus [22] = test: In vivo induction of p300 degradation in human RS4-11 cells xenografted in SCID mouse at 3 mg/kg, ip measured after 24 to 48 hrs by Western blot analysis; type: functional, organism-based; conditions: time 24-48 hrs
RS4-11 [23] = test: Downregulation of MYB gene expression in human RS4-11 cells at 1 nM measured after 8 hrs by qRT-PCR analysis; type: functional, cell-based
CREB-binding protein [24] = molecular target: T2, CREB-binding protein; test: Induction of CBP degradation in human RS4-11 cells incubated for 4 hrs by Western blot assay; type: cell-based
MOLM-13 [25] = test: Cytotoxicity against human MOLM-13 cells assessed as maximum inhibition of cell growth incubated for 4 days by cellTiter-Glo assay relative to control; type: functional; conditions: time 4 day
RS4-11 [26] = test: Antitumor activity against human RS4-11 cells xenografted in SCID mouse assessed as tumor growth inhibition at 3 mg/kg, ip administered once a week on day 1 for 2 weeks relative to control; type: functional; design: scale not given: the % may be the effect or the level left
RS4-11 [27] = test: Cytotoxicity against human RS4-11 cells assessed as maximum inhibition of cell growth incubated for 4 days by cellTiter-Glo assay relative to control; type: functional; conditions: time 4 day
MOLM-13 [28] = test: Cytotoxicity against human MOLM-13 cells assessed as inhibition of cell growth incubated for 4 days by cellTiter-Glo assay; type: functional, cell-based; conditions: MOLM-13, 96 h
[29] = Toxicity in SCID mouse xenografted with human RS4-11 cells assessed as body weight loss at 3 mg/kg, ip administered once a week on day 1 for 2 weeks relative to control; type: organism-based; conditions: in vivo, 336 h
[30] = Toxicity in SCID mouse xenografted with human RS4-11 cells assessed as body weight loss at 0.3 mg/kg, ip administered five days a week for 2 weeks relative to control; type: organism-based; conditions: in vivo, 336 h
Mus musculus [31] = test: In vivo induction of CBP degradation in human RS4-11 cells xenografted in SCID mouse at 3 mg/kg, ip measured after 24 to 48 hrs by Western blot analysis; type: functional, organism-based; conditions: time 24-48 hrs
[32] = molecular target: T3, Histone acetyltransferase p300; test: Induction of p300 degradation in human RS4-11 cells assessed as maximal degradation incubated for 4 hrs by Western blot assay relative to control; type: cell-based
[33] = molecular target: Non-selective voltage-gated ion channel VDAC1 (Homo sapiens) (UniProt P21796); test: Induction of VDAC1 degradation in human RS4-11 cells assessed as fold reduction in protein level at 10 nM incubated for 4 hrs by Western blot analysis; type: cell-based
Chain of Non-selective voltage-gated ion channel VDAC1 (Homo sapiens) (P21796 whole entry): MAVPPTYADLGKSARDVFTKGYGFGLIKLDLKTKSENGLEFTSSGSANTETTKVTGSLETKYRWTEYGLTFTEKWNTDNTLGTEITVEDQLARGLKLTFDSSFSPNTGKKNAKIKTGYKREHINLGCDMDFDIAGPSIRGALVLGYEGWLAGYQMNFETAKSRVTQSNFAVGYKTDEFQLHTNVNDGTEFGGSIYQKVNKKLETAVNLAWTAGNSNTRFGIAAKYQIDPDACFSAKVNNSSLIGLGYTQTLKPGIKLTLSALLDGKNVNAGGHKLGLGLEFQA

[34] = molecular target: T3, Histone acetyltransferase p300; test: Induction of p300 degradation in human RS4-11 cells at 10 nM incubated for 3 hrs by Proteomics analysis; type: cell-based
MV4-11 [35] = test: Cytotoxicity against human MV4-11 cells assessed as maximum inhibition of cell growth incubated for 4 days by cellTiter-Glo assay relative to control; type: functional; conditions: time 4 day
CREB-binding protein [36] = molecular target: T2, CREB-binding protein; test: Induction of CBP degradation in human RS4-11 cells assessed as maximal degradation incubated for 4 hrs by Western blot assay; type: cell-based
Target sequence in this assay (Q92793 2-2442 limits assumed): as the sequence (Q92793 2-2442 limits assumed) above

[37] = molecular target: Bromodomain-containing protein 4 (Homo sapiens) (UniProt O60885); test: Induction of BRD4 degradation in human RS4-11 cells at 10 nM incubated for 4 hrs by Western blot analysis; type: cell-based

CC(=O)N1CCc2c(c(-c3cccc4cc(-c5ccc(C(=O)NC6CCN(c7ccc8c(c7)CN(C7CCC(=O)NC7=O)C8=O)CC6)nc5)ncc34)nn2C2CCOCC2)C1 (stereo not drawn)
Activity (Mus musculus [1]): Active | fold change (FC) [2]: 2 | Activity [3]: < 3% | Activity (RS4-11 [4]): 81% | Activity (RS4-11 [5]): Active | Activity (Mus musculus [6]): Active | pIC50 (HL-60 [7]): 9.27 | Activity [8]: < 10% | Activity (RS4-11 [9]): 68% | Activity (RS4-11 [10]): Active | Activity (RS4-11 [11]): Active | Activity (RS4-11 [12]): 68% | concentration at 3 h [13]: 240 ng/g | pIC50 (RS4-11 [14]): 10.00 | Drug uptake [15]: Not Active | pIC50 (MV4-11 [16]): 10.40 | Activity (CREB-binding protein [17]): Active | Activity (RS4-11 [18]): Active | Imax (HL-60 [19]): 96% | concentration at 3 h [20]: 57.5 ng/g | pEC50 [21]: 9.70 | Activity (Mus musculus [22]): inactive | Activity (RS4-11 [23]): Active | pEC50 (CREB-binding protein [24]): 10.30 | Imax (MOLM-13 [25]): 96% | Activity (RS4-11 [26]): 81% | Imax (RS4-11 [27]): 94% | pIC50 (MOLM-13 [28]): 8.64 | Activity [29]: < 10% | Activity [30]: < 3% | Activity (Mus musculus [31]): inactive | Emax [32]: 99% | fold change (FC) [33]: 2 | Activity [34]: Active | Imax (MV4-11 [35]): 99% | Emax (CREB-binding protein [36]): 99% | Activity [37]: inactive

CO[C@H]1CC[C@@H](n2c(C3CCCC(=O)N3c3ccc(F)c(F)c3)nc3cc(-c4c(C)noc4C)ccc32)CC1 (stereo partly drawn)
pIC50 (HL-60 [7]): 7.52 | Activity (RS4-11 [11]): Active | pIC50 (RS4-11 [14]): 6.26 | pIC50 (MV4-11 [16]): 7.29 | Imax (HL-60 [19]): 99% | Imax (MOLM-13 [25]): 99% | Imax (RS4-11 [27]): 99.8% | pIC50 (MOLM-13 [28]): 7.64 | Imax (MV4-11 [35]): 98%

CNC(=O)Nc1ccc2c(c1)CC[C@]21CN(CC(=O)N(Cc2ccc(F)cc2)[C@H](C)C(F)(F)F)C(=O)O1
pIC50 (HL-60 [7]): 6.82 | pIC50 (MV4-11 [16]): 6.81 | Imax (HL-60 [19]): 99% | Imax (MOLM-13 [25]): 96% | Imax (RS4-11 [27]; 96 h): 93.5% and 89% and 99% | pIC50 (MOLM-13 [28]): 6.62 | Imax (MV4-11 [35]): 94%

— ChEMBL document CHEMBL5338817, “Discovery of Exceptionally Potent, Selective, and Efficacious PROTAC Degraders of CBP and p300 Proteins” (J Med Chem, 2023)
